The values that follow come from US20220226337A1 (Gilead Sciences, Inc., priority 2018, published 2022).

pEC50: −log10 of the molar value.

This assay addresses T1, α4β7 integrin interaction with MadCAM-1 (RPMI8866 cells) (Homo sapiens, UniProt P13612+P26010).
T1 construct: α4β7 integrin expressing cells; endogenous in cells; host or cells: RPMI8866 cells
T1 sequence (P13612 34-1032): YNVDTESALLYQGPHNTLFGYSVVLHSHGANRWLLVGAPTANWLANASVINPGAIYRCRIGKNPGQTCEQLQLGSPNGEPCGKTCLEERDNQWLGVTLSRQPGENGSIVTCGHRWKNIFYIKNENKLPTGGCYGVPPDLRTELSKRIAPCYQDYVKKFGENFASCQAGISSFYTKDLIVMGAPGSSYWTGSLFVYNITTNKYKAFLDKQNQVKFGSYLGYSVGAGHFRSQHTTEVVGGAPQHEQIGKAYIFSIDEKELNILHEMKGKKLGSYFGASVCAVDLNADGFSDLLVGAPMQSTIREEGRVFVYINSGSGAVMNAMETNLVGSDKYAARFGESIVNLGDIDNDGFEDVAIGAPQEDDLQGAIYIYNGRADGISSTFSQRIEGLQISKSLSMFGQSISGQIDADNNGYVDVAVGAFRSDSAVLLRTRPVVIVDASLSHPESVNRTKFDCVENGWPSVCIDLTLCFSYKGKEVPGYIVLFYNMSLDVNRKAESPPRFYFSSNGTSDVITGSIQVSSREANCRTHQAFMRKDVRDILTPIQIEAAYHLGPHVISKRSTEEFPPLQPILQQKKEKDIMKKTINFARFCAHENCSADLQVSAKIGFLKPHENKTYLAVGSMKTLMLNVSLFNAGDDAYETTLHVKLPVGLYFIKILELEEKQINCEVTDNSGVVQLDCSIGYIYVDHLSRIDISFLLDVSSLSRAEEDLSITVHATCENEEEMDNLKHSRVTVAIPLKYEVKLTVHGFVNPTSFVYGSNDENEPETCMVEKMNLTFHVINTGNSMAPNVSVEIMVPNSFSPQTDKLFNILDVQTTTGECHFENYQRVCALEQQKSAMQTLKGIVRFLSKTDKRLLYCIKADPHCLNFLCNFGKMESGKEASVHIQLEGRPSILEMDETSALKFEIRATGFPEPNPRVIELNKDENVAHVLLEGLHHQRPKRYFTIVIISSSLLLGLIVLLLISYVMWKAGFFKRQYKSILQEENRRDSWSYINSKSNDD
T1 sequence (P26010 20-798): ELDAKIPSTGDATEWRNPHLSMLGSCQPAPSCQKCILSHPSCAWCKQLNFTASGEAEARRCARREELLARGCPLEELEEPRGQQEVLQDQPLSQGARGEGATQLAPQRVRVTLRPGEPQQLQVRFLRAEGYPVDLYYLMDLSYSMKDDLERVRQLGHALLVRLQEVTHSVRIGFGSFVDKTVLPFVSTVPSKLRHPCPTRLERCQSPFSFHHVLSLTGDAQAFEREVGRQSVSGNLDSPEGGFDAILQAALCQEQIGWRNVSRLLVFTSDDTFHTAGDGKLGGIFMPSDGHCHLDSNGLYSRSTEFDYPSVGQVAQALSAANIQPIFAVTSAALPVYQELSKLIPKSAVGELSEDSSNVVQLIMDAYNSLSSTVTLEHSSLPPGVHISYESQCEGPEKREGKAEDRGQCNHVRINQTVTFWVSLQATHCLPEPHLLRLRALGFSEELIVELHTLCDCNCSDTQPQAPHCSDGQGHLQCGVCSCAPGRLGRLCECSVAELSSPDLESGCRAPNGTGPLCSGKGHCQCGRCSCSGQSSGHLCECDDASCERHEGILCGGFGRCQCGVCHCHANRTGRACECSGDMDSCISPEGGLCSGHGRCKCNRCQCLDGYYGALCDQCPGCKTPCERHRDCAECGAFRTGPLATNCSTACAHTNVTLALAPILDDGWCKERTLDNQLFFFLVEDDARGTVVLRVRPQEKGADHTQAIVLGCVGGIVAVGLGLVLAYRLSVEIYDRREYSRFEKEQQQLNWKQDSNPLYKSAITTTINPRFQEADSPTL
Briefly: α4β7 Integrin Cell Capture Assay. Format: cell-based. The following applies: capture of α4β7 integrin expressing RPMI8866 cells on recombinant MadCAM-1 extracellular domain-coated plate; 0.5 mM MnCl2. Here is the method:
The potency of inhibitors in preventing α4β7 integrin interaction with MadCAM-1 was measured by monitoring the capture of α4β7 integrin expressing cells on a recombinant MadCAM-1 extracellular domain-coated plate. 384-well plates (Corning 3702) were coated with MadCAM-1 extracellular domain by dispensing 20 μL of MAdCAM-1 at 1.0 μg/mL per well and incubating overnight at 4° C. The plates were then washed with PBS and blocked with 3% BSA for 2 hours before being washed again. RPMI8866 cells were spun down and re-suspended in assay medium (DMEM+0.5% FBS+0.5 mM MnCl2) at a density of 0.5×10^6 cells/mL. The cells were then dispensed (60 μL/well) to a 384-well plate (Greiner 781280) that was previously spotted with 60 nL of test compound per well. The plates were incubated at 37° C. for 1 hour. 50 μL of cells were transferred to the blocked, MadCAM-1-coated plates and incubated for 30 minutes at 37° C. 10 μL of 12% glutaraldehyde containing Hoechst 33342 (0.06 mg/mL) was added to the cells (2% glutaraldehyde and 0.01 mg/mL final concentrations). The plates were incubated for 90 minutes at room temperature. The plates were then washed 3 times with 70 μL of PBS per well and imaged on a Cellomics ArrayScan instrument. The cells that were bound to the plate were counted and plotted against the compound concentration to determine the EC50 of the test compounds.
Regarding `C[C@@H](Nc1cc(F)c(C(=O)N[C@@H](Cc2ccc(-c3ncccc3C(F)(F)F)c3c2CCCO3)C(=O)O)c(F)c1)C(F)(F)F` [Example 89, (S)-2-(2,6-difluoro-4-(((R)-1,1,1-trifluoropropan-2-yl)amino)benzamido)-3-(8-(3-(trifluoromethyl)pyridin-2-yl)chroman-5-yl)propanoic acid], the pEC50 is 8.07.

With `Cc1nc(C)n(C)c(=O)c1-c1ccc(C[C@H](NC(=O)c2c(F)cc(N3CCOC[C@@H]3C(F)(F)F)cc2F)C(=O)O)c2c1OCCC2` (atropisomer, axis not shown) [Example 117], the negative logarithm of the EC50 (pEC50) is 9.69.

In the case of `Cn1nc(C(F)(F)F)cc(-c2ccc(C[C@H](NC(=O)c3c(F)cc(N4CCOC[C@@H]4C(F)(F)F)cc3F)C(=O)O)c3c2OCCC3)c1=O` [Example 133], the negative logarithm of the EC50 (pEC50) is 8.85.

With `CCOCc1cc(OC)c(-c2ccc(C[C@H](NC(=O)c3c(F)cc(NS(=O)(=O)c4ccc(-c5ccnc(F)c5)cc4)cc3F)C(=O)O)c3c2CCCO3)c(OC)c1` [Example 100, (S)-2-(2,6-difluoro-4-((4-(2-fluoropyridin-4-yl)phenyl)sulfonamido)benzamido)-3-(5-(4-(ethoxymethyl)-2,6-dimethoxyphenyl)chroman-8-yl)propanoic acid], the negative-log EC50 (pEC50) is 8.78.

Consider `Cc1c(-c2ccc(C[C@H](NC(=O)c3c(Cl)cccc3Cl)C(=O)O)c3c2OCCC3)c(=O)n(C)c2ccccc12` (single isomer, unassigned) [Example 61], for which the pEC50 was 8.64.

Regarding `O=C(N[C@@H](Cc1ccc(-c2ncc3ccccc3c2C(F)(F)F)c2c1OCCO2)C(=O)O)c1c(F)cccc1F` [Example 12, (S)-2-(2,6-difluorobenzamido)-3-(8-(4-(trifluoromethyl)isoquinolin-3-yl)-2,3-dihydrobenzo[b][1,4]dioxin-5-yl)propanoic acid], the negative-log EC50 (pEC50) is 7.86.

In the case of `Cc1nc(-c2ccc(C[C@H](NC(=O)c3c(F)cc(N4CCC(F)(F)C[C@@H]4C(F)(F)F)cc3F)C(=O)O)c3c2OCCC3)c(=O)n(C)c1C` [Example 144], the pEC50 is 9.26.

For the compound `C[C@@H](Nc1cc(F)c(C(=O)N[C@@H](Cc2ccc(-c3cn(C)c(=O)n(C)c3=O)c3c2CCCO3)C(=O)O)c(F)c1)C(F)(F)F` [Example 88, (S)-2-(2,6-difluoro-4-(((R)-1,1,1-trifluoropropan-2-yl)amino)benzamido)-3-(8-(1,3-dimethyl-2,4-dioxo-1,2,3,4-tetrahydropyrimidin-5-yl)chroman-5-yl)propanoic acid], the pEC50 is 8.62.

In the case of `Cc1cc(N2CCOC[C@@H]2C(F)(F)F)cc(F)c1C(=O)N[C@@H](Cc1ccc(-c2c(C(F)(F)F)cc(C)n(C)c2=O)c2c1CCCO2)C(=O)O` [Example 135], the pEC50 was 10.03.

In the case of `Cn1nc(-c2ccc(C[C@H](NC(=O)c3c(Cl)cccc3Cl)C(=O)O)c3c2OCCC3)c2ccccc21` [Example 69, (S)-2-(2,6-dichlorobenzamido)-3-(8-(1-methyl-1H-indazol-3-yl)chroman-5-yl)propanoic acid], the pEC50 is 6.80.

For the compound `Cc1cc(N2CCOC[C@@H]2C(F)(F)F)cc(F)c1C(=O)N[C@@H](Cc1ccc(-n2c(=O)c3ccncc3n(C)c2=O)c2c1CCCO2)C(=O)O` [Example 115, (S)-2-(2-fluoro-6-methyl-4-((R)-3-(trifluoromethyl)morpholino)benzamido)-3-(8-(1-methyl-2,4-dioxo-1,4-dihydropyrido[3,4-d]pyrimidin-3(2H)-yl)chroman-5-yl)propanoic acid], the pEC50 was 10.57.

Take `Cn1c(=O)c(-c2ccc(C[C@H](NC(=O)c3c(F)cc(N4CCOC[C@@H]4C(F)(F)F)cc3F)C(=O)O)c3c2OCCC3)cc2ccccc21` [Example 32, (S)-2-(2,6-difluoro-4-((R)-3-(trifluoromethyl)morpholino)benzamido)-3-(8-(1-methyl-2-oxo-1,2-dihydroquinolin-3-yl)chroman-5-yl)propanoic acid]: the pEC50 was 8.75.

Turning to `Cc1nc(-c2ccc(C[C@H](NC(=O)c3c(F)cc(N4CC[C@@H]4C(F)(F)F)cc3F)C(=O)O)c3c2OCCC3)c(=O)n(C)c1C` [Example 131], the pEC50 is 8.81.

Consider `Cc1cc(N2CCOC[C@@H]2C(F)(F)F)cc(F)c1C(=O)N[C@@H](Cc1ccc(-c2cc3cnccc3n(C)c2=O)c2c1CCCO2)C(=O)O` [Example 170], for which the negative logarithm of the EC50 (pEC50) was 9.85.

`Cc1c(-c2ccc(C[C@H](NC(=O)c3c(F)cccc3F)C(=O)O)c3c2CCC3)c(=O)n(C)c2ccc(F)cc12` [Example 105, (S)-2-(2,6-difluorobenzamido)-3-(7-(6-fluoro-1,4-dimethyl-2-oxo-1,2-dihydroquinolin-3-yl)-2,3-dihydro-1H-inden-4-yl)propanoic acid]: the pEC50 was 8.61.

With `Cc1cnc(-c2ccc(C[C@H](NC(=O)c3c(F)cc(N4CCOC[C@@H]4C(F)(F)F)cc3F)C(=O)O)c3c2COC3)nc1C` [Example 28, (S)-2-(2,6-difluoro-4-((R)-3-(trifluoromethyl)morpholino)benzamido)-3-(7-(4,5-dimethylpyrimidin-2-yl)-1,3-dihydroisobenzofuran-4-yl)propanoic acid], the negative logarithm of the EC50 (pEC50) is 7.02.

Take `N#Cc1cc(Cl)c(-c2ccc(C[C@H](NC(=O)c3c(F)cc(N[C@H](c4ccccc4)C(F)(F)F)cc3F)C(=O)O)c3c2OCCC3)c(Cl)c1` [Example 87, (S)-3-(8-(2,6-dichloro-4-cyanophenyl)chroman-5-yl)-2-(2,6-difluoro-4-(((R)-2,2,2-trifluoro-1-phenylethyl)amino)benzamido)propanoic acid]: the pEC50 is 7.89.

For `Cn1cc(C(F)(F)F)nc(-c2ccc(C[C@H](NC(=O)c3c(F)cc(N4CCOC[C@@H]4C(F)(F)F)cc3F)C(=O)O)c3c2OCCC3)c1=O` [Example 123], the negative-log EC50 (pEC50) is 9.01.

Take `O=C(N[C@@H](Cc1ccc(-c2c(Cl)cc(F)cc2Cl)c2c1CCCO2)C(=O)O)c1c(Cl)cccc1Cl` [Example 75, (S)-3-(8-(2,6-dichloro-4-fluorophenyl)chroman-5-yl)-2-(2,6-dichlorobenzamido)propanoic acid]: the negative-log EC50 (pEC50) is 7.17.

For `Cc1c(-c2ccc(C[C@H](NC(=O)c3c(F)cccc3F)C(=O)O)c3c2OCCC3)c(=O)n(C)c2ccccc12` [Example 57, (S)-2-(2,6-difluorobenzamido)-3-(8-(1,4-dimethyl-2-oxo-1,2-dihydroquinolin-3-yl)chroman-5-yl)propanoic acid], the negative logarithm of the EC50 (pEC50) was 8.38.
